# Assay results taken from ChEMBL document CHEMBL4311955, “HIV-1 Protease Inhibitors Incorporating Stereochemically Defined P2' Ligands To Optimize Hydrogen Bonding in the Substrate Envelope” (J Med Chem, 2019).
# pEC50, pKi: −log10 of the molar value.
# Experiments:
# Protease [1] = biological target: Protease (Human immunodeficiency virus 1, UniProt Q9YQ12, I84V); test: Inhibition of HIV1 NL4-3 protease I84V mutant expressed in Escherichia coli TAP-106 cells using EDANS/DABCYL-labelled 10-amino acid containing natural MA/CA cleavage site as substrate preincubated for 1 hr followed by substrate addition and measured for 60 mins by FRET assay
# Protease (Human immunodeficiency virus 1, UniProt Q9YQ12, I84V), sequence (Q9YQ12 entry or part of it I84V): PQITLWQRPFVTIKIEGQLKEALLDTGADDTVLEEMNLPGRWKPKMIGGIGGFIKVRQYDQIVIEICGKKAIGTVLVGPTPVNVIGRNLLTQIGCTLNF
# Protease [2] = biological target: Protease (Human immunodeficiency virus 1, UniProt Q9YQ12, A71V/I50V); test: Inhibition of HIV1 NL4-3 protease I50V/A71V mutant expressed in Escherichia coli TAP-106 cells using EDANS/DABCYL-labelled 10-amino acid containing natural MA/CA cleavage site as substrate preincubated for 1 hr followed by substrate addition and measured for 60 mins by FRET assay
# Protease (Human immunodeficiency virus 1, UniProt Q9YQ12, A71V/I50V), sequence (Q9YQ12 entry or part of it A71V/I50V): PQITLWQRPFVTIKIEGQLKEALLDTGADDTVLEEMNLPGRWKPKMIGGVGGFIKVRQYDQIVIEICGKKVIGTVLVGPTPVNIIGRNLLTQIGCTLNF
# [3] = test system: Human immunodeficiency virus 1; test: Antiviral activity against wild-type HIV1 NL4-3 infected in human TZM-bl cells preincubated for 18 hrs followed by viral infection and measured after 48 hrs by luciferase reporter gene assay; type: functional, organism-based; details: Human immunodeficiency virus 1, NL4-3, TZM-bl
# [4] = test system: Human immunodeficiency virus 1; test: Antiviral activity against multidrug-resistant HIV1 NL4-3 SLK19 infected in human TZM-bl cells preincubated for 18 hrs followed by viral infection and measured after 48 hrs by luciferase reporter gene assay; type: functional, organism-based; details: Human immunodeficiency virus 1, NL4-3 SLK19, TZM-bl
# [5] = test system: Human immunodeficiency virus 1; test: Antiviral activity against multidrug-resistant HIV1 NL4-3 VSL20 infected in human TZM-bl cells preincubated for 18 hrs followed by viral infection and measured after 48 hrs by luciferase reporter gene assay; type: functional, organism-based; details: Human immunodeficiency virus 1, NL4-3 VSL20, TZM-bl
# [6] = test system: Human immunodeficiency virus 1; test: Antiviral activity against multidrug-resistant HIV1 NL4-3 KY24 infected in human TZM-bl cells preincubated for 18 hrs followed by viral infection and measured after 48 hrs by luciferase reporter gene assay; type: functional, organism-based; details: Human immunodeficiency virus 1, NL4-3 KY24, TZM-bl
# [7] = Selectivity ratio of EC50 for antiviral activity against multidrug-resistant HIV1 NL4-3 SLK19 infected in human TZM-bl cells to EC50 for antiviral activity against wild-type HIV1 NL4-3 infected in human TZM-bl cells; type: functional
# [8] = Selectivity ratio of EC50 for antiviral activity against multidrug-resistant HIV1 NL4-3 VSL20 infected in human TZM-bl cells to EC50 for antiviral activity against wild-type HIV1 NL4-3 infected in human TZM-bl cells; type: functional
# [9] = Selectivity ratio of EC50 for antiviral activity against multidrug-resistant HIV1 NL4-3 KY24 infected in human TZM-bl cells to EC50 for antiviral activity against wild-type HIV1 NL4-3 infected in human TZM-bl cells; type: functional
# [10] = test system: Human immunodeficiency virus 1; test: Potency index, ratio of darunavir EC50 to test compound EC50 for antiviral activity against multidrug-resistant HIV1 NL4-3 KY24 infected in human TZM-bl cells; type: functional
Compound,pKi (Protease [1]),pKi (Protease [2]),pEC50 [3],pEC50 [4],pEC50 [5],pEC50 [6],Ratio EC50 [7],Ratio EC50 [8],Ratio EC50 [9],Ratio EC50 [10]
CC[C@H](C)CN(C[C@@H](O)[C@H](Cc1ccccc1)NC(=O)O[C@H]1CO[C@H]2OCC[C@H]21)S(=O)(=O)c1ccc([C@H](C)O)cc1,9.95,10.03,8.34,7.31,6.55,6.31,11,61,107,
CC(C)CN(C[C@@H](O)[C@H](Cc1ccccc1)NC(=O)O[C@H]1CO[C@H]2OCC[C@H]21)S(=O)(=O)c1ccc([C@H](O)CO)cc1,9.55,,6.72,,,,,,,
CCC(CC)CN(C[C@@H](O)[C@H](Cc1ccccc1)NC(=O)O[C@H]1CO[C@H]2OCC[C@H]21)S(=O)(=O)c1ccc(CO)cc1,11.30,10.26,8.38,7.44,6.37,6.31,9,101,118,2
CC[C@H](C)CN(C[C@@H](O)[C@H](Cc1ccccc1)NC(=O)O[C@H]1CO[C@H]2OCC[C@H]21)S(=O)(=O)c1ccc([C@@H](C)O)cc1,10.02,9.88,8.38,7.04,6.54,6.47,22,69,81,
CC(C)CN(C[C@@H](O)[C@H](Cc1ccccc1)NC(=O)O[C@H]1CO[C@H]2OCC[C@H]21)S(=O)(=O)c1ccc([C@@H](O)CO)cc1,10.01,10.05,6.75,,,,,,,
CC(C)CN(C[C@@H](O)[C@H](Cc1ccccc1)NC(=O)O[C@H]1CO[C@H]2OCC[C@H]21)S(=O)(=O)c1ccc([C@H](C)O)cc1,,,8.33,7.51,6.93,6.45,,,,
CC(C)CN(C[C@@H](O)[C@H](Cc1ccccc1)NC(=O)O[C@H]1CO[C@H]2OCC[C@H]21)S(=O)(=O)c1ccc([C@@H](C)O)cc1,,,8.12,7.00,6.83,6.44,,,,
CC[C@H](C)CN(C[C@@H](O)[C@H](Cc1ccccc1)NC(=O)O[C@H]1CO[C@H]2OCC[C@H]21)S(=O)(=O)c1ccc([C@@H](O)CO)cc1,9.67,,7.10,,,,,,,
CCC(CC)CN(C[C@@H](O)[C@H](Cc1ccccc1)NC(=O)O[C@H]1CO[C@H]2OCC[C@H]21)S(=O)(=O)c1ccc([C@H](O)CO)cc1,9.87,9.66,7.39,6.82,6.38,5.94,4,10,28,
CC[C@H](C)CN(C[C@@H](O)[C@H](Cc1ccccc1)NC(=O)O[C@H]1CO[C@H]2OCC[C@H]21)S(=O)(=O)c1ccc(CO)cc1,11.00,10.10,8.24,7.28,6.51,5.96,9,54,191,
CC[C@H](C)CN(C[C@@H](O)[C@H](Cc1ccccc1)NC(=O)O[C@H]1CO[C@H]2OCC[C@H]21)S(=O)(=O)c1ccc([C@H](O)CO)cc1,9.30,,7.04,,,,,,,
CCC(CC)CN(C[C@@H](O)[C@H](Cc1ccccc1)NC(=O)O[C@H]1CO[C@H]2OCC[C@H]21)S(=O)(=O)c1ccc([C@@H](O)CO)cc1,10.24,10.13,7.40,6.94,7.00,6.29,3,3,13,
CCC(CC)CN(C[C@@H](O)[C@H](Cc1ccccc1)NC(=O)O[C@H]1CO[C@H]2OCC[C@H]21)S(=O)(=O)c1ccc([C@H](C)O)cc1,,,8.36,7.59,6.95,6.71,,,,
CCC(CC)CN(C[C@@H](O)[C@H](Cc1ccccc1)NC(=O)O[C@H]1CO[C@H]2OCC[C@H]21)S(=O)(=O)c1ccc([C@@H](C)O)cc1,,,8.29,7.49,6.38,6.46,,,,
